{"source": "paper PMC12123458", "about": "“Unraveling Small Molecule-Mediated Sirtuin 3 Activation at a Distinct Binding Site for Cardioprotective Therapies” (ACS Central Science, 2025)", "key": {"hSirt3": {"target": "T1, hSirt3 (Homo sapiens, UniProt Q9NTG7)", "T1 sequence (Q9NTG7 1-399)": "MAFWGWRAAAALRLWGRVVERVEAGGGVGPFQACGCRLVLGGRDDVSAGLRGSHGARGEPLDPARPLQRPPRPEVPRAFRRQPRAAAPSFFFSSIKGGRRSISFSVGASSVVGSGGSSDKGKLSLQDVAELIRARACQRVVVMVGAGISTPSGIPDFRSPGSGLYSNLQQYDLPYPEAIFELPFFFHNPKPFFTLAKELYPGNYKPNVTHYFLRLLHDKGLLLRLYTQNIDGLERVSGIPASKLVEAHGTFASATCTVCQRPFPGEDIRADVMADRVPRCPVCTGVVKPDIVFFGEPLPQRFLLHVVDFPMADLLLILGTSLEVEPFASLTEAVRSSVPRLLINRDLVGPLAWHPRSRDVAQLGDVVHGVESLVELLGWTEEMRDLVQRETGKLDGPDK", "test": "Mass spectrometry-based deacetylation assay, substrate […]-Ac", "assay_type": "biochemical", "conditions": "substrate GELLEAIK-Ac; SKLB-11A 100 μM"}, "SIRT2 [1]": {"target": "T2, SIRT2 (Homo sapiens, UniProt Q8IXJ6)", "T2 sequence (Q8IXJ6 1-389)": "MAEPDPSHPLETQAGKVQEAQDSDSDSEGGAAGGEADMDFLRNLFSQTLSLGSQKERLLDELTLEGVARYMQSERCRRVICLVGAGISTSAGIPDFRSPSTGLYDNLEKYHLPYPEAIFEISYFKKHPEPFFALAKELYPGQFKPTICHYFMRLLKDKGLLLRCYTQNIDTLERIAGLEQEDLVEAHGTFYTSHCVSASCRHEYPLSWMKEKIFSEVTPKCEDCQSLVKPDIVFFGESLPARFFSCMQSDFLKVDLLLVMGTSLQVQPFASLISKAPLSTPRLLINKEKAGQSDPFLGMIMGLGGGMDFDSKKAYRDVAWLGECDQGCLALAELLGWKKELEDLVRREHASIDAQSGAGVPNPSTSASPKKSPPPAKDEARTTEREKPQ", "test": "Coupled enzymatic assay, acetylated α-tubulin-K25 substrate", "assay_type": "biochemical", "conditions": "100 μM", "excerpt": "(§1) Additionally, we used surface plasmon resonance (SPR) to measure the binding of SKLB-11A to immobilized SIRT3. […] We next evaluated the selectivity of SKLB-11A for different SIRT family members. […] We next examined the functional specificity of SKLB-11A using coupled enzymatic assays with isoform-specific, physiologically relevant substrates: acetylated p53-K381 for SIRT1, acetylated α-tubulin-K25 for SIRT2, acetylated MnSOD-K122 for SIRT3, and succinylated CPS1-K537 for SIRT5 (Supplementary Table S3). […] Using Schrödinger molecular docking simulations, we assessed the binding interactions of SKLB-11A with SIRT isoforms."}, "SIRT5 [2]": {"target": "T3, SIRT5 (Homo sapiens, UniProt Q9NXA8)", "T3 sequence (Q9NXA8 37-310)": "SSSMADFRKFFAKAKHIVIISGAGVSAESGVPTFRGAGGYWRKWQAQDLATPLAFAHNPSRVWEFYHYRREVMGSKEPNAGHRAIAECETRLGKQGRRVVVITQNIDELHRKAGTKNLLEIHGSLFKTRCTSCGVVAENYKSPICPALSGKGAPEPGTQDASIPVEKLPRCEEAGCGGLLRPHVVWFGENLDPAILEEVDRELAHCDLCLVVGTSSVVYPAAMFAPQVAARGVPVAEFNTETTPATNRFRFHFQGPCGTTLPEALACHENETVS", "test": "Coupled enzymatic assay, succinylated CPS1-K537 substrate", "assay_type": "biochemical", "conditions": "100 μM", "excerpt": "as §1"}, "SIRT1": {"target": "T4, SIRT1 (Rattus norvegicus, UniProt A0A0G2JZ79)", "T4 construct": "endogenous in cells; host or cells: H9c2", "T4 sequence (A0A0G2JZ79 1-741)": "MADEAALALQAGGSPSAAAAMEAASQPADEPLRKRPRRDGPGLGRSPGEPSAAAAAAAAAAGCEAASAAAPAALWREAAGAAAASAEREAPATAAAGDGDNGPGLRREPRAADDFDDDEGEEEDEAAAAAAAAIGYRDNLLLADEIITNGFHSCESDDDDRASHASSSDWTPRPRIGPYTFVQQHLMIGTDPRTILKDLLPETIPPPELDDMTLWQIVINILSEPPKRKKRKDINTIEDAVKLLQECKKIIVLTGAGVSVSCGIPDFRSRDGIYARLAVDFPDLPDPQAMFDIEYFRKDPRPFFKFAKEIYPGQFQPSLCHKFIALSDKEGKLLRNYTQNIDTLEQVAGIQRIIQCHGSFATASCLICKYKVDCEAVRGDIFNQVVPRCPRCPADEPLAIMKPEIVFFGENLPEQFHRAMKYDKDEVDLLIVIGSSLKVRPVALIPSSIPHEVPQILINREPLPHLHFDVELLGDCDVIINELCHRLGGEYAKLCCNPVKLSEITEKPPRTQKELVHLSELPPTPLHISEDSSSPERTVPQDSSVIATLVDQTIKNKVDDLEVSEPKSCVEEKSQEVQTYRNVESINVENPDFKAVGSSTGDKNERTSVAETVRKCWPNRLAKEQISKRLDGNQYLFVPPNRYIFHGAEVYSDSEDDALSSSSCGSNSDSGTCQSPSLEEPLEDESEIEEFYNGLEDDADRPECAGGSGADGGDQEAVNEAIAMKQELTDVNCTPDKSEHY", "test": "CETSA of SIRT1 in H9c2 cells", "assay_type": "cell-based"}, "SIRT2 [3]": {"target": "T5, SIRT2 (Rattus norvegicus, UniProt Q5RJQ4)", "T5 construct": "endogenous in cells; host or cells: H9c2", "T5 sequence (Q5RJQ4 1-350)": "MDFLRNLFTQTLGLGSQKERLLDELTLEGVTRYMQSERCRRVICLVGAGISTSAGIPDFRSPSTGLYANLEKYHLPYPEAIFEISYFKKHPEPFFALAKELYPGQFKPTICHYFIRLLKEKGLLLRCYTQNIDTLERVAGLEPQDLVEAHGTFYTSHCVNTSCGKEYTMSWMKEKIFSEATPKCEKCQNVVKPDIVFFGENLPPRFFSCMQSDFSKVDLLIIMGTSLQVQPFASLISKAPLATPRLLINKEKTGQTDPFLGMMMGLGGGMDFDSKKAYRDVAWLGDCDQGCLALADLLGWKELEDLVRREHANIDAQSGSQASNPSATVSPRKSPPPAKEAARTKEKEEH", "test": "CETSA of SIRT2 in H9c2 cells", "assay_type": "cell-based"}, "SIRT5 [4]": {"target": "T6, SIRT5 (Rattus norvegicus, UniProt Q68FX9)", "T6 construct": "endogenous in cells; host or cells: H9c2", "T6 sequence (Q68FX9 37-310)": "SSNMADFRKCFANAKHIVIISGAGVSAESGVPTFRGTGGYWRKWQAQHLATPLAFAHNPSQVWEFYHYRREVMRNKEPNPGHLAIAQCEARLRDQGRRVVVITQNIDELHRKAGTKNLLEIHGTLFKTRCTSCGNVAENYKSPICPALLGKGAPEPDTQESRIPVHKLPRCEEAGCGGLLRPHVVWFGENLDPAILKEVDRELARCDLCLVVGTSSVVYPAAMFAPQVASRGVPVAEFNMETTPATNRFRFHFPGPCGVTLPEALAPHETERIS", "test": "CETSA of SIRT5 in H9c2 cells", "assay_type": "cell-based"}}}
{"compound": "COC(=O)c1c(N)n(Cc2ccc(F)cc2)c2nc3ccccc3nc12", "note": "[SKLB-11A, Methyl 2-amino-1-(4-fluorobenzyl)-1H-pyrrolo[2,3-b]quinoxaline-3-carboxylate]", "values": [{"measurement": "catalytic efficiency of SIRT3 deacetylation (MS assay)", "setting": "hSirt3", "result": "significantly increased the catalytic efficiency"}, {"measurement": "effect on basal SIRT2 deacetylation activity", "setting": "SIRT2 [1]", "result": "no statistically significant effects"}, {"measurement": "effect on basal SIRT5 desuccinylation activity", "setting": "SIRT5 [2]", "result": "no statistically significant effects"}, {"measurement": "thermal stability of SIRT1 (CETSA)", "setting": "SIRT1", "result": "little effect on the thermal stability"}, {"measurement": "thermal stability of SIRT2 (CETSA)", "setting": "SIRT2 [3]", "result": "little effect on the thermal stability"}, {"measurement": "thermal stability of SIRT5 (CETSA)", "setting": "SIRT5 [4]", "result": "little effect on the thermal stability"}]}
